What was measured:
Design in all cases: species or system AML cell lines (8); Primary HTS, single concentration about 10 uM, Cell Titer Glo viability; log10 luminescence, per cent inhibition relative to cycloheximide control
Conditions in all cases: 72 h, relative to cycloheximide control, log10 luminescence; inhibitor
MV4-11 = tested on: MV4-11
MOLM-13 = tested on: MOLM-13
M07e = tested on: M07e
CHRF288-11 = tested on: CHRF288-11
CMK = tested on: CMK
U937 = tested on: U937
ML-2 = tested on: ML-2
CMS = tested on: CMS

Structure (SMILES)	MV4-11 %inh (MV4-11) [%]	MOLM-13 %inh (MOLM-13) [%]	M07e %inh (M07e) [%]	CHRF288-11 %inh (CHRF288-11) [%]	CMK %inh (CMK) [%]	U937 %inh (U937) [%]	ML-2 %inh (ML-2) [%]	CMS %inh (CMS) [%]
CCS(=O)(=O)c1ccc(OC)c(Nc2nccc(N(C)c3ccc4c(C)n[nH]c4c3)n2)c1 [SJ000573103-1, U20513/4/2]	5.714	9.892	2.221	5.806	6.86	1.879	-1.801	9.95
[O-][S+]1CCN(Cc2ccc(-c3ccc4ncnc(Nc5ccc(OCc6ccccc6)c(Cl)c5)c4c3)o2)CC1 [SJ000573105-1, U14859/143/2]	5.18	4.138	-0.2789	0.5474	4.729	1.842	-0.9946	-1.021
CS(=O)(=O)CCNCc1ccc(-c2ccc3ncnc(Nc4ccc(OCc5cccc(C(F)(F)F)c5)cc4)c3c2)o1 [SJ000573107-1, U14801/49/2]	64.67	82.16	-0.9182	2.523	3.779	-2.16	1.894	0.378
CS(=O)(=O)Nc1ccc(-c2cc(-c3ccccc3)cc(C(N)=O)c2N)cc1 [SJ000573108-1, R12070/86/1]	0.1875	-0.8297	0.06792	2.153	-4.619	-2.496	-0.5203	-2.317
N#Cc1ccc(Oc2nccc(-c3c(-c4ccc(F)cc4)ncn3C3CCNCC3)n2)cc1 [SJ000573110-1, JB27026-057C1]	-1.125	1.125	7.948	0.2466	-0.241	-2.466	1.756	-2.544
COc1c(C(N)=O)cc(-c2ccc(Cl)cc2)cc1-c1ccc(S(N)(=O)=O)cc1 [SJ000573112-1, R12706/72/1]	-1.028	6.365	-1.128	-3.227	7.525	1.708	3.182	5.358
CS(=O)(=O)CCNCc1cc(-c2cc3c(Nc4ccc(OCc5cccc(F)c5)c(Cl)c4)ncnc3s2)cs1 [SJ000573113-1, U20258/167/2]	1.359	4.183	1.088	-4.074	4.188	1.681	-1.098	1.969
COc1cccc(/C=N/Nc2ncnc3c2cnn3-c2cccc(OC)c2)c1 [SJ000573114-1, U19125/70/2]	-0.9072	0.5296	-0.7733	-4.16	1.014	-1.619	-2.362	0.5792
COc1cc(Nc2ncc(-c3ccccc3)o2)cc(OC)c1 [SJ000573115-1, U21834/32/1]	75.56	74.91	1.992	-9.037	3.561	0.9564	2.252	-1.309
O=S(=O)(CCOCc1ccc(-c2ccc3ncnc(Nc4ccc(OCc5cccc(F)c5)c(Cl)c4)c3c2)o1)c1ccccc1 [SJ000573116-1, U15872/4/1]	2.149	-1.247	-2.095	-0.6594	-5.52	-1.869	-0.1863	1.936
COc1ccccc1Nc1ncc(-c2ccccc2)o1 [SJ000573117-1, U14961/90/1]	83.21	90.67	4.937	5.085	-0.2443	-2.759	0.6262	-1.143
NC(=O)c1ccc(Oc2nccc(-c3c(-c4ccc(F)cc4)ncn3C3CCNCC3)n2)cc1 [SJ000573120-1, JB27193-061B1]	1.936	6.408	-0.791	0.2701	7.904	4.71	1.469	-1.264
Fc1cccc(COc2ccc(Nc3ncnc4sc(-c5cccs5)cc34)cc2Cl)c1 [SJ000573122-1, U22476/39/1]	-2.021	3.265	-0.3704	-6.815	1.871	3.407	0.7454	-1.772
Fc1ccc(-c2ncn(C3CCNCC3)c2-c2ccnc(Oc3ccc4c(c3)OCO4)n2)cc1 [SJ000573123-1, JB27026-196B1]	0.1546	2.344	3.354	7.293	13.54	5.059	3.564	0.7899
CS(=O)(=O)CCNCc1ccc(-c2ccc3ncnc(Nc4ccc(OCc5ccccc5)c(C(F)(F)F)c4)c3c2)o1 [SJ000573124-1, U14859/90/2]	-0.8429	3.836	-5.391	-4.921	-0.3954	1.669	3.074	-0.5761
Fc1ccc(-c2ncn(C3CCNCC3)c2-c2ccnc(Oc3ccc(Oc4ccccc4)cc3)n2)cc1 [SJ000573126-1, JB27026-104B1]	29.08	28.44	10.64	38.59	18.72	16.46	34.19	2.898
COc1ccc(-c2ccncc2)cc1C(N)=O [SJ000573127-1, R12444/16/1]	-1.177	4.454	1.948	-1.562	5.063	2.206	2.021	5.051
CNC(=O)c1cc(-c2ccc(F)cc2)cc(-c2ccc(S(=O)(=O)N3CCCC3)cc2)c1N [SJ000573128-1, R11976/170/3]	2.522	10.13	5.294	14.81	31.99	15.8	6.119	9.624
COc1ccc2cc(-c3c(-c4ccncc4)nc(-c4ccc([S+](C)[O-])cc4)n3C)ccc2c1 (centres unmarked) [SJ000573130-1, NJ44241-161A1]	-3.083	-0.6311	-4.153	0.3346	-2.307	-2.991	-0.4869	-2.967
Fc1ccc(-c2nc3n(c2-c2ccncc2)CCS3)cc1 [SJ000573131-1, RJA-12113-255 | U519/32/1 | SKF 86002]	-2.292	-3.313	0.008042	-0.4036	1.491	-2.013	0.01337	-0.311
c1cnn2ncc(-c3ccnc(NCCCN4CCOCC4)n3)c2c1 [SJ000573132-1, U14929/199/1]	15.28	36.05	4.031	17.57	3.496	21.78	4.815	12.25
CCS(=O)(=O)c1ccc(OC)c(Nc2ncc(-c3cccc(-c4ccccc4F)c3)o2)c1 [SJ000573133-1, U16399/42/1]	49.91	73.99	-0.6473	3.996	-2.911	-2.484	1.693	-1.131

Reference: PMC6522510 (Nature Communications, 2019)
